Assay results reported in ChEMBL document CHEMBL3044635, “Effect of propiconazole and difenoconazole on the control of anthracnose of chilli fruits caused by Colletotrichum capsici” (Crop Prot, 2006).

What was measured:
Colletotrichum truncatum [1] = experiment: Fungicidal activity against Colletotrichum capsici assessed as inhibition of mycelial growth; assay type: functional
Colletotrichum truncatum [2] = experiment: Fungicidal activity against Colletotrichum capsici assessed as mycelial biomass at 5 ug/ml incubated 16 hr photoperiod for 20 days (reference value: 675 mg); assay type: functional
Colletotrichum truncatum [3] = experiment: Fungicidal activity against Colletotrichum capsici assessed as reduction of polygalacturonase production at 1 ug/ml incubated for 10 days measured up to 120 min by Ostwald-Fenske viscometric analysis (reference value: 45.3%); assay type: functional; design: scale not given: the % may be the effect or the level left
Colletotrichum truncatum [4] = experiment: Fungicidal activity against Colletotrichum capsici assessed as mycelial biomass at 25 ug/ml incubated 16 hr photoperiod for 20 days (reference value: 675 mg); assay type: functional
Colletotrichum truncatum [5] = experiment: Fungicidal activity against Colletotrichum capsici assessed as sporulation at 1 ug/ml incubated 16 hr photoperiod for 20 days by haemocytometer (reference value: 0.081 x 10^6 ml'-1); assay type: functional
Colletotrichum truncatum [6] = experiment: Fungicidal activity against Colletotrichum capsici infected chilli plant assessed as fruit mass measured per pot at 0.1% applied as spray on day 10 post inoculation and twice every 20 days measured on day 155 post sowing in green house conditions (reference value: 85.3 to 94.5 g); assay type: functional
Colletotrichum truncatum [7] = experiment: Fungicidal activity against Colletotrichum capsici assessed as linear growth at 10 ug/ml incubated 16 hr photoperiod for 20 days (reference value: 90 mm); assay type: functional
Colletotrichum truncatum [8] = experiment: Fungicidal activity against Colletotrichum capsici assessed as sporulation at 0.5 ug/ml incubated 16 hr photoperiod for 20 days by haemocytometer (reference value: 0.081 x 10^6 ml'-1); assay type: functional
Colletotrichum truncatum [9] = experiment: Fungicidal activity against Colletotrichum capsici assessed as inhibition of spore germination at 0.1 ug/ml after 48 to 96 hr relative to control; assay type: functional
Colletotrichum truncatum [10] = experiment: Fungicidal activity against Colletotrichum capsici assessed as sporulation at 5 ug/ml incubated 16 hr photoperiod for 20 days by haemocytometer (reference value: 0.081 x 10^6 ml'-1); assay type: functional
Colletotrichum truncatum [11] = experiment: Fungicidal activity against Colletotrichum capsici assessed as sporulation at 0.1 ug/ml incubated 16 hr photoperiod for 20 days by haemocytometer (reference value: 0.081 x 10^6 ml'-1); assay type: functional
Colletotrichum truncatum [12] = experiment: Fungicidal activity against Colletotrichum capsici infected chilli plant assessed as percent disease index at 0.1% applied as spray on day 10 post inoculation and twice every 20 days measured on day 155 post sowing in green house conditions (reference value: 62.5 to 68.6%); assay type: functional
Colletotrichum truncatum [13] = experiment: Fungicidal activity against Colletotrichum capsici assessed as spore germination at 1 ug/ml after 48 to 96 hr (reference value: 70.2 CFU); assay type: functional
Colletotrichum truncatum [14] = experiment: Fungicidal activity against Colletotrichum capsici infected chilli plant assessed as fruit length measured per plot at 0.1% applied as spray on day 10 post inoculation and twice every 20 days measured on day 155 post sowing in field conditions (reference value: 8 to 8.7 cm); assay type: functional
Colletotrichum truncatum [15] = experiment: Fungicidal activity against Colletotrichum capsici assessed as mycelial biomass at 10 ug/ml incubated 16 hr photoperiod for 20 days (reference value: 675 mg); assay type: functional
Colletotrichum truncatum [16] = experiment: Fungicidal activity against Colletotrichum capsici assessed as spore germination at 5 ug/ml after 48 to 96 hr (reference value: 70.2 CFU); assay type: functional
Colletotrichum truncatum [17] = experiment: Fungicidal activity against Colletotrichum capsici assessed as reduction of polygalacturonase trans-eliminase production at 1 ug/ml incubated for 10 days measured up to 120 min by Ostwald-Fenske viscometric analysis (reference value: 40.8%); assay type: functional; design: scale not given: the % may be the effect or the level left
Colletotrichum truncatum [18] = experiment: Fungicidal activity against Colletotrichum capsici infected chilli plant assessed as fruit yield measured per plot at 0.1% applied as spray on day 10 post inoculation and twice every 20 days measured on day 155 post sowing in field conditions (reference value: 8.25 to 9.3 kg); assay type: functional
Colletotrichum truncatum [19] = experiment: Fungicidal activity against Colletotrichum capsici assessed as spore germination at 50 ug/ml after 48 to 96 hr (reference value: 70.2 CFU); assay type: functional
Colletotrichum truncatum [20] = experiment: Fungicidal activity against Colletotrichum capsici assessed as sporulation at 25 ug/ml incubated 16 hr photoperiod for 20 days by haemocytometer (reference value: 0.081 x 10^6 ml'-1); assay type: functional
Colletotrichum truncatum [21] = experiment: Fungicidal activity against Colletotrichum capsici assessed as spore germination at 0.5 ug/ml after 48 to 96 hr (reference value: 70.2 CFU); assay type: functional
Colletotrichum truncatum [22] = experiment: Fungicidal activity against Colletotrichum capsici assessed as linear growth at 25 ug/ml incubated 16 hr photoperiod for 20 days (reference value: 90 mm); assay type: functional
Colletotrichum truncatum [23] = experiment: Fungicidal activity against Colletotrichum capsici assessed as sporulation at 50 ug/ml incubated 16 hr photoperiod for 20 days by haemocytometer (reference value: 0.081 x 10^6 ml'-1); assay type: functional
Colletotrichum truncatum [24] = experiment: Fungicidal activity against Colletotrichum capsici assessed as mycelial biomass at 1 ug/ml incubated 16 hr photoperiod for 20 days (reference value: 675 mg); assay type: functional
Colletotrichum truncatum [25] = experiment: Fungicidal activity against Colletotrichum capsici assessed as linear growth at 0.5 ug/ml incubated 16 hr photoperiod for 20 days (reference value: 90 mm); assay type: functional
Colletotrichum truncatum [26] = experiment: Fungicidal activity against Colletotrichum capsici assessed as spore germination at 25 ug/ml after 48 to 96 hr (reference value: 70.2 CFU); assay type: functional
Colletotrichum truncatum [27] = experiment: Fungicidal activity against Colletotrichum capsici infected chilli plant assessed as percent disease index at 0.1% applied as spray on day 10 post inoculation and twice every 20 days measured on day 155 post sowing in field conditions (reference value: 51 to 56.5%); assay type: functional
Colletotrichum truncatum [28] = experiment: Fungicidal activity against Colletotrichum capsici assessed as linear growth at 50 ug/ml incubated 16 hr photoperiod for 20 days (reference value: 90 mm); assay type: functional
Colletotrichum truncatum [29] = experiment: Fungicidal activity against Colletotrichum capsici assessed as linear growth at 5 ug/ml incubated 16 hr photoperiod for 20 days (reference value: 90 mm); assay type: functional
Colletotrichum truncatum [30] = experiment: Fungicidal activity against Colletotrichum capsici assessed as reduction of pectin trans-eliminase production at 1 ug/ml incubated for 10 days measured up to 120 min by Ostwald-Fenske viscometric analysis (reference value: 38.5%); assay type: functional; design: scale not given: the % may be the effect or the level left
Capsicum annuum = experiment: Phytotoxicity in Capsicum annuum (pepper) at 0.1% applied as spray; assay type: organism-based; settings: in vivo, other
Colletotrichum truncatum [31] = experiment: Fungicidal activity against Colletotrichum capsici infected chilli plant assessed as fruit length at 0.1% applied as spray on day 10 post inoculation and twice every 20 days measured on day 155 post sowing in green house conditions (reference value: 6.8 to 7 cm); assay type: functional
Colletotrichum truncatum [32] = experiment: Fungicidal activity against Colletotrichum capsici assessed as linear growth at 0.1 ug/ml incubated 16 hr photoperiod for 20 days (reference value: 90 mm); assay type: functional
Colletotrichum truncatum [33] = experiment: Fungicidal activity against Colletotrichum capsici assessed as mycelial biomass at 0.5 ug/ml incubated 16 hr photoperiod for 20 days (reference value: 675 mg); assay type: functional
Colletotrichum truncatum [34] = experiment: Fungicidal activity against Colletotrichum capsici assessed as mycelial biomass at 50 ug/ml incubated 16 hr photoperiod for 20 days (reference value: 675 mg); assay type: functional
Colletotrichum truncatum [35] = experiment: Fungicidal activity against Colletotrichum capsici assessed as mycelial biomass at 0.1 ug/ml incubated 16 hr photoperiod for 20 days (reference value: 675 mg); assay type: functional
Colletotrichum truncatum [36] = experiment: Fungicidal activity against Colletotrichum capsici assessed as sporulation at 10 ug/ml incubated 16 hr photoperiod for 20 days by haemocytometer (reference value: 0.081 x 10^6 ml'-1); assay type: functional
Colletotrichum truncatum [37] = experiment: Fungicidal activity against Colletotrichum capsici assessed as linear growth at 1 ug/ml incubated 16 hr photoperiod for 20 days (reference value: 90 mm); assay type: functional
Colletotrichum truncatum [38] = experiment: Fungicidal activity against Colletotrichum capsici assessed as spore germination at 10 ug/ml after 48 to 96 hr (reference value: 70.2 CFU); assay type: functional

`c1ccc2[nH]c(-c3cscn3)nc2c1` [THIABENDAZOLE] showed an ED50 (Colletotrichum truncatum [1]) of under 5 ugAi/ml.

Work on `CC(C)(C)C(O)C(Oc1ccc(-c2ccccc2)cc1)n1cncn1` (configuration not stated) [BITERTANOL] yielded an ED50 (Colletotrichum truncatum [1]) of under 5 ugAi/ml.

Compound `CCCCC(O)(Cn1cncn1)c1ccc(Cl)cc1Cl` (configuration not stated) [HEXACONAZOLE] has an ED50 (Colletotrichum truncatum [1]) of under 5 ugAi/ml.

For `C=CCOC(Cn1ccnc1)c1ccc(Cl)cc1Cl` (configuration not stated) [ENILCONAZOLE], the ED50 (Colletotrichum truncatum [1]) was under 5 ugAi/ml.

Work on `COC(=O)Nc1nc2ccccc2[nH]1` [CARBENDAZIM] yielded an Activity (Colletotrichum truncatum [2]) of 186 mg, an Activity (Colletotrichum truncatum [3]) of 13.5% and an Activity (Colletotrichum truncatum [4]) of 46 mg. It also gave an Activity (Colletotrichum truncatum [5]) of 1.49 ×10⁶ /ml, a Crop_yield (Colletotrichum truncatum [6]) of 120.8 g and an Activity (Colletotrichum truncatum [7]) of 21.3 mm. The Activity (Colletotrichum truncatum [8]) was 2.42 ×10⁶ /ml, the inhibition at 0.1 µg/mL (Colletotrichum truncatum [9]) was 35% and the Activity (Colletotrichum truncatum [10]) was 1.03 ×10⁶ /ml. It also gave an Activity (Colletotrichum truncatum [11]) of 3.53 ×10⁶ /ml, a PDI (Colletotrichum truncatum [12]) of 27.7% and a CFU (Colletotrichum truncatum [13]) of 10.3. The Activity (Colletotrichum truncatum [14]) was 8.5 cm, the Activity (Colletotrichum truncatum [15]) was 82 mg and the CFU (Colletotrichum truncatum [16]) was 3.2. For the same compound, the Activity (Colletotrichum truncatum [17]) was 19%, the Crop_yield (Colletotrichum truncatum [18]) was 11.25 kg and the CFU (Colletotrichum truncatum [19]) was 0. The Activity (Colletotrichum truncatum [20]) was 0 ×10⁶ /ml, the CFU (Colletotrichum truncatum [21]) was 32.2 and the Activity (Colletotrichum truncatum [22]) was 9 mm. For the same compound, the Activity (Colletotrichum truncatum [23]) was 0 ×10⁶ /ml, the Activity (Colletotrichum truncatum [24]) was 304 mg and the Activity (Colletotrichum truncatum [25]) was 66.3 mm. It also gave a CFU (Colletotrichum truncatum [26]) of 0, a PDI (Colletotrichum truncatum [27]) of 27.5% and an Activity (Colletotrichum truncatum [28]) of 9 mm. For the same compound, the Activity (Colletotrichum truncatum [29]) was 39.5 mm, the Activity (Colletotrichum truncatum [30]) was 18% and the Activity (Capsicum annuum) was “Non-toxic”. The Activity (Colletotrichum truncatum [31]) was 7.3 cm, the Activity (Colletotrichum truncatum [32]) was 85.5 mm and the Activity (Colletotrichum truncatum [33]) was 405 mg. For the same compound, the Activity (Colletotrichum truncatum [34]) was 0 mg, the Activity (Colletotrichum truncatum [35]) was 570 mg and the Activity (Colletotrichum truncatum [36]) was 0 ×10⁶ /ml. The Activity (Colletotrichum truncatum [37]) was 45.8 mm and the CFU (Colletotrichum truncatum [38]) was 0.
